Results reported in publication PMC8834685 (International Journal of Molecular Sciences, 2022).

T1: DmUCP4A (Drosophila melanogaster, UniProt Q9VX14)
T1 construct: gene Ucp4A
T1 sequence (Q9VX14 1-340): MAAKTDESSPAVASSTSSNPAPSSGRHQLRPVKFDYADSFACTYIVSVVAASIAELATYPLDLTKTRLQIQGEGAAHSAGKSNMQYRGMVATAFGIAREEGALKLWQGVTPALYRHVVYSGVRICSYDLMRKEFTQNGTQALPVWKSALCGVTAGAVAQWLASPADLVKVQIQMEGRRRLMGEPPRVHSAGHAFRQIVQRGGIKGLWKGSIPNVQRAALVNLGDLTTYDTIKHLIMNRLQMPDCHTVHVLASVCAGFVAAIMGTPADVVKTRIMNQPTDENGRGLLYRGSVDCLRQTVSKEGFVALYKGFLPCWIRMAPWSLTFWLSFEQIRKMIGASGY


The molecules below were run against T1, DmUCP4A (assay: inhibition of […]aspartate/aspartate exchange in proteoliposomes). Conditions: 0.3 mM external [14C]aspartate, 10 mM internal aspartate, pH 6.5, 25 °C, 1 min.
Type: biochemical

| Molecule | % inhibition at 10 mM |
| --- | --- |
| O=C(O)CC(C(=O)O)c1ccccc1 (stereo not drawn) [phenylsuccinate] | butylmalonate, and phenylsuccinate |
| N[C@@H](CS(=O)O)C(=O)O [cysteine sulfinate] | to a much lower extent by oxalate, maleate, 2-oxoglutarate, and cysteine sulfinate |
| O=C(O)/C=C\C(=O)O [maleate] | to a much lower extent by oxalate, maleate, 2-oxoglutarate, and cysteine sulfinate |
| CCCCC(C(=O)O)C(=O)O [butylmalonate] | butylmalonate, and phenylsuccinate |
| c1ccc(-c2ccnc3c2ccc2c(-c4ccccc4)ccnc23)cc1 [bathophenanthroline] | The activity of DmUCP4A was strongly inhibited by BAT, PLP, and tannic acid |
| O=C(O)CCC(=O)C(=O)O [2-oxoglutarate] | to a much lower extent by oxalate, maleate, 2-oxoglutarate, and cysteine sulfinate |
| Cc1ncc(COP(=O)(O)O)c(C=O)c1O [pyridoxal-5′-phosphate] | The activity of DmUCP4A was strongly inhibited by BAT, PLP, and tannic acid |

Same assay, conditions: 0.3 mM external [14C]aspartate, 10 mM internal aspartate, pH 6.5, 25 °C, 1 min; added externally with labelled aspartate as potential competitor

| Molecule | % inhibition at 10 mM |
| --- | --- |
| O=C(O)C(=O)O [oxalate] | to a much lower extent by oxalate, maleate, 2-oxoglutarate, and cysteine sulfinate |

What follows are molecules tested on N[C@@H](CC(=O)O)C(=O)O (assay: purified protein). Conditions: aspartate/aspartate exchange, 10 mM internal aspartate, pH 6.5, 25 °C, labelled compound.

| Molecule | Km [µM] |
| --- | --- |
| DmUCP4A (Drosophila melanogaster) (protein) MAAKTDESSPAVASSTSSNPAPSSGRHQLRPVKFDYADSFACTYIVSVVAASIAELATYPLDLTKTRLQIQGEGAAHSAGKSNMQYRGMVATAFGIAREEGALKLWQGVTPALYRHVVYSGVRICSYDLMRKEFTQNGTQALPVWKSALCGVTAGAVAQWLASPADLVKVQIQMEGRRRLMGEPPRVHSAGHAFRQIVQRGGIKGLWKGSIPNVQRAALVNLGDLTTYDTIKHLIMNRLQMPDCHTVHVLASVCAGFVAAIMGTPADVVKTRIMNQPTDENGRGLLYRGSVDCLRQTVSKEGFVALYKGFLPCWIRMAPWSLTFWLSFEQIRKMIGASGY | 229.2 ± 12.64 |
